Tests used:
[1] = tested on: U87MG human glioblastoma cell; experiment: BrdU cell proliferation assay (Cell Signaling kit); type: cell-based; conditions: U-87 MG, 72 h, read-out: In vitro cell-inhibiting activity IC50 U87MG
Experimental: Experimental method: cell proliferation assay was carried out by BrdU method (BrdU cell proliferation assay kit, Cell Signaling Technology Company).
Preparation of gradient dilution solutions of test compound: the stock solution containing 10 mM test compound was subjected to 4-fold stepwise dilution with DMSO to prepare solutions containing 2.5 mM, 625 μM, 156 μM, 39 μM, 9.8 μM, and 2.5 μM test compound, respectively. 2 μL DMSO-diluted compound was added to 198 μL culture medium containing 10% FBS to prepare […] test compound, wherein the maximum concentration of the test compound was 100 μM, the concentration of DMSO was 1%, and there were 7 concentration gradients.
U87MG medium: MEM+10% FBS
(1) Cells grown to 80% confluence (in exponential growth phase) were digested with pancreatin, and centrifuged to collect the cells. MDA-MB-435S and U87MG cells were re-suspended in FBS-free culture medium, counted, and seeded to a 96-well plate; MDA-MB-435S cells were seeded at 3000 cells/well/81 μL; U87MG cells were seeded at 4000 cells/well/81 MCF-7 cells were resuspended in culture medium containing 1% FBS, and counted and seeded to a 96-well plate, at 4000 cell/well/82 μL. The plates were placed in a cell incubator at 37° C. […]
(9) To each well, stop solution (100 μL) was added, and OD value at 450 nm was measured by ELISA instrument […]

CDK4/D3 = CDK4/D3 (Homo sapiens, UniProt P11802); experiment: In vitro enzyme-inhibiting activity, Caliper Mobility Shift method; type: biochemical; conditions: read-out: CDK enzyme-inhibiting activity IC50 CDK4/D3
Experimental: Measurement of activity for inhibiting CDK4/6 kinase by Caliper Mobility Shift method.
1) Preparation of 1-Fold Buffer for CDK4 Kinase 800 μL stock solution containing 1000 mM HEPES (pH 7.5), and 40 μL stock solution containing 10% Triton X-100, were added to 39160 μL ultra pure water, and the resultant mixture was mixed homogeneously.
25 mL stock solution containing 4% Coating Reagent #3 (provided with the 12-sipper chip used in Caliper device), 50 mL stock solution containing 1000 mM HEPES (pH 7.5), 50 mL stock solution containing 0.5 M EDTA, and 0.25 mL stock solution containing 30% Brij-35, were added to 374.75 mL ultra pure water, and the resultant mixture was mixed homogeneously.
7 μL CDK4/D3 enzyme solution, and 9 μL stock solution containing 1M DTT were added to 1784 μL 1-fold CDK4 kinase buffer, and the resultant mixture was mixed homogeneously.
10 μL stock solution containing 100 mM ATP, 45 μL stock solution containing 1M MgCl2, and 45 μL FAM-tagged polypeptide 8, were added to 1700 μL 1-fold CDK4 kinase buffer, and the resultant mixture was mixed homogeneously.
DMSO solution containing 10 mM test compound was diluted with DMSO to a solution containing 50 μM test compound (which was used as a stock solution).
1) 5 μL 5-fold test compound solution and 10 μL 2.5-fold kinase solution were added to the corresponding wells in a 384-well plate, and incubated at room temperature for 10 min.
2) To the corresponding wells, 10 μL 2.5-fold polypeptide solution was added to start the enzymatic reaction, and incubation was performed at 28° C. for 5 h.
To the corresponding wells, 25 μL stop solution was added to stop the reaction.
The data was read by Caliper device, the inhibition rate was calculated by the following formula, and curve fitting was carried out by GraphPad5.0 software to get IC50 value. Inhibition rate=(maximal value−sample value)/(maximal value−minimal value)×100, wherein, maximal value: positive control without addition of test compound; minimal value: negative control without addition of enzyme.

liver cancer PDX model = experiment: In vivo pharmacodynamics, liver cancer PDX model; design: species or system female NU/NU nude mouse; conditions: 200 mg/kg PO QD 21 days
Experimental: Tumor tissues were harvested from tumor-bearing mice of liver cancer PDX model, cut into pieces with diameter of […] and seeded subcutaneously to back of female NU/NU nude mouse. When the tumors' average volume reached 100-300 mm^3, the animals were grouped and administered with a drug. Compound 1 was orally administrated once a day at an amount of 200 mg/kg, for 21 days. The volume of the drug for administration is 0.1 mL/10 g according to animal's body weight.
(§1) Tumor volume was measured with vernier calipers twice a week by measuring the major diameter and the minor diameter. The tumor volume is calculated by the following formula: volume=0.5×(major diameter)×(minor diameter)^2. The relative tumor volume (RTV) and the proliferation ratio (T/C) were calculated according to the result of measurement. RTV=Vt/V0, wherein Vt is the average tumor volume on the t day after grouping, and V0 is the average tumor volume on the day of grouping. T/C (%)=RTV of treatment group/RTV of solvent control group×100%.
One-way ANOVA was used for analysing the group statistical analysis of tumor volumes. p<0.05 was regarded as having significant difference.

[2] = tested on: Capan-1 human pancreatic cancer cell; experiment: In vivo pharmacodynamics, subcutaneous Capan-1 pancreatic cancer xenograft model; design: species or system female BALB/c nude mouse; conditions: Capan-1 xenograft, 100 mg/kg PO QD 21 days
Experimental: Culture medium of Capan-1 pancreatic cancer cell: IMDM culture medium+10% fetal bovine serum+100 U/mL penicillin and 100 μg/mL streptomycin+2 mM glutamine.
Cells were cultured and passaged. Tumor cells in exponential growth phase were used for in vivo tumor seeding. The cells were seeded subcutaneously to right lateral thorax of female BALB/c nude mouse. When tumor grew to a volume of about 150 mm^3, the animals were grouped and administered with a drug. Compound 1 was orally administrated once a day at an amount of 100 mg/kg, for 21 days. The volume of the drug for administration is 0.1 mL/10 g according to animal's body weight.
as §1, with “diameter).” for “diameter)^2.”, “T/C=RTV” for “T/C (%)=RTV”
SPSS statistical software was used for T test on the 2 groups of independent samples, and for group statistical analysis of tumor volumes. p<0.05 was regarded as having significant difference.

CDK4/D3, sequence (P11802 whole entry): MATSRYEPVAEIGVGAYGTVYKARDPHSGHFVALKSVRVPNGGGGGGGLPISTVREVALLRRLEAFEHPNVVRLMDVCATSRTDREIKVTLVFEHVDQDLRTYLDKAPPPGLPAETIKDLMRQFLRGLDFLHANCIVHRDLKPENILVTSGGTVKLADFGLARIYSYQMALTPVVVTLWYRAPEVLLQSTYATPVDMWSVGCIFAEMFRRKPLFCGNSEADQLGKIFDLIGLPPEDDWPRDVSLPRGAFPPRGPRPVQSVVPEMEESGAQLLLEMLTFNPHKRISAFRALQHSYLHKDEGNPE
CDK4/D3, sequence (P30281 whole entry partner): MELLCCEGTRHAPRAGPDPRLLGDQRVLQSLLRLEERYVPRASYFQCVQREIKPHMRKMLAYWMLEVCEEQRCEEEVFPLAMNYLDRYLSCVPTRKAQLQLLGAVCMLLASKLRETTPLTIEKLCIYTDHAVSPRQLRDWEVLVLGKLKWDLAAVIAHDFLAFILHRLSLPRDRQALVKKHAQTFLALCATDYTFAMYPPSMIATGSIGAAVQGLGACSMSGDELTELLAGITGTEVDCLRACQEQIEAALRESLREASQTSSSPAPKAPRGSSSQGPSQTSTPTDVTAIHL

Compound | IC50 [1] [nM] | IC50 (CDK4/D3) [nM] | T/C (proliferation ratio) (liver cancer PDX model) [%] | Tumor volume after administration (liver cancer PDX model; average ± standard error) [mm^3] | Tumor volume before administration (liver cancer PDX model; average ± standard error) [mm^3] | T/C [2] [%] | TGI (inhibition ratio of tumor growth) [2] [%] | Tumor volume after administration ([2]; average ± standard error) [mm^3] | Tumor volume before administration ([2]; average ± standard error) [mm^3]
CCN1CCN(Cc2ccc(Nc3ncc(F)c(-c4cc(F)c5nc(C)n(C(C)C)c5c4)n3)nc2)CC1 [LY2835219, reference compound] | 40 |  |  |  |  |  |  |  | 
CCN1CCN(Cc2cnc(Nc3cc(-c4cc(F)c5nc(C)n(C(C)C)c5c4)c(F)cn3)nc2)CC1 [Compound 1, 5-((4-ethylpiperazin-1-yl)methyl)-N-(5-fluoro-4-(4-fluoro-1-isopropyl-2-methyl-1H-benzo[d]imidazol-6-yl)pyridin-2-yl)pyrimidin-2-amine] |  | 2.7 | 31.74 | 199.22 ± 33.76 | 164.8 ± 10.35 | 31.5 | 68.5 | 368 ± 48 | 150 ± 12
